Values after ≈ are worked out from the molar mass of the structure shown. “Also recorded” adds a separate entry of the source. Read-outs that look alike come from different tables or passages of the source. Numbered stars: 1 amine (or outer) side, 2 acyl side, 3 side chain; on linkers, the order of the positions; unused ones are H or OH. Bridge positions count the residues as written; N and C are the ends. Square brackets hold non-standard residues; d marks the D form. Side chains are listed from the residue outwards. Peptide text beside a SMILES is read from it. * marks the point of attachment. d(εLys) = N[C@H](CCCCN[*:1])C(=O)[*:2]; εLys = N[C@@H](CCCCN[*:1])C(=O)[*:2]; Fmoc = O=C(OCC1c2ccccc2-c2ccccc21)*; X1 = CC[C@H](C)CCCCC(=O)*; Dab = NCC[C@H](N)C(=O)O
Tests used:
[1] = tested on: Pseudomonas aeruginosa (NCTC 13437), clinical multidrug-resistant isolate
[2] = Cryo-TEM imaging of self-assembled nanostructure; type: physicochemical; settings: 1 wt % aqueous solutions, above CAC
Description: Imaging was carried out as described previously.[35],[75]
To examine the morphology of the self-assembled nanostructure of these three arm trifunctional peptides, cryo-TEM imaging was performed for 1 wt % solutions, above the measured CAC values. […] In many cases, these structures are deposited on the lacey carbon grid in preference to, or in addition to, the vitrified grid holes.

[3] = tested on: human red blood cells (hRBCs); settings: 0.5% (v/v) hRBCs in PBS, peptide 0–0.1 wt %, 1 h, hemoglobin at 414 nm, normalised to 0.1% Triton X-100; mean of three independent experiments
[4] = tested on: E. coli O157:H7 strain EDL933
[5] = tested on: S. aureus (ATCC 12600); settings: ATCC 12600, 24 h
[6] = Critical aggregation concentration by ANS fluorescence probe assay; type: physicochemical; settings: emission 486 nm, breakpoint of I/I0 vs log(c/wt %), aqueous solution in ultrapure water, pH 6.5
Description: Fluorescence experiments were carried out as described previously.[35]
To determine the CAC value of individual peptides, the results were plotted as I/I0 versus log(c/wt %), where I indicates the maximum fluorescence intensity of ANS at a given sample concentration and I0 denotes the peak intensity for the ANS solution without peptide.
Critical aggregation concentration (CAC) values of the tripodal peptides were obtained from fluorescence probe assays using 8-anilo-1-naphthalenesulfonic acid (ANS).

[7] = tested on: Salmonella enterica serovar Typhimurium; settings: 24 h
[8] = tested on: L929 murine fibroblast cells; test: MTT cell viability (cytocompatibility) assay; type: cell-based; settings: L929 murine fibroblasts, after 48 h, n = 3
Description: L929 murine fibroblast cells (ECACC General Cell Collection) were grown in Dulbecco’s modified Eagle’s medium (DMEM) supplemented with 10% fetal bovine serum (FBS), 20 mM HEPES, and 1% GlutaMAX. The cells were maintained at pH 7.4, 37 °C, and 5% CO2 in 25 cm^2 cell culture flasks.
Assays were conducted as described previously.[23]
To be of utility as practical antimicrobials, bioactive molecules must show selective activity compared to their toxicity toward mammalian cells. The cytocompatibility of our peptides was investigated by a cell metabolic activity assay using MTT [3-(4,5-dimethylthiazol-2-yl)-2,5-diphenyltetrazolium bromide] assays using L929 murine fibroblast cell lines.
Figure 6 Cell viability data (with L929 murine fibroblasts) of tripodal peptides: (a) TP, (b) DTP, (c) FTP, and (d) FDTP. The error bar corresponds to the standard deviation of the value from the mean (n = 3, *p < 0.05, **p < 0.01 by performing the Anova statistical test).

[9] = tested on: Klebsiella aerogenes; settings: 24 h
[10] = tested on: E. coli EDL933 bacterial membrane; test: Bacteria live/dead (DMAO/EthD-III) staining, fluorescence microscopy; type: cell-based, Escherichia coli; settings: E. coli EDL933 treated at MBC for 1 h at 37 °C; DMAO green / EthD-III red
Description: Dual staining of peptide-treated bacteria, to detect potential membrane disruption,[80] was performed using a bacteria live/dead staining kit (PromoKine). This process involves incubating samples with fluorescent, nucleic acid dyes (DMAO, green, and EthD-III, red) that, respectively, are either able or unable to cross the bacterial membrane. […] Next, they were incubated with set volumes of both dyes for 15 min at room temperature. Slides were mounted using 5 μL of the stained solution onto glass coverslips and observed under a Nikon Eclipse Ti inverted microscope using a 10× objective. Images of different treatments, including controls were captured and compared.
Figure 8 DMAO/EtD-III stained images showing the peptide effects on the integrity of the bacterial membrane. Fluorescence microscopy was used to visualize DMAO and EtD-III dyes binding to the bacterial DNA. In this experiment, E. coli EDL933 was incubated with peptides at their minimum bactericidal concentration (MBC) for 1 h at 37 °C, followed by staining with a bacteria live/dead staining kit (PromoKine). Cells with disrupted membranes are stained red (EtD-III), while cells with intact membranes are stained green (DMAO).

[11] = tested on: E. coli EDL933; test: SEM imaging of peptide-treated bacteria; type: cell-based, Escherichia coli; settings: E. coli EDL933, peptide at MBC (31.25 μg/mL), 1 h at 37 °C
[12] = P. aeruginosa NCTC13437, 24 h incubation, 5 × 10^6 CFU/mL, absorbance 600 nm, mean of three independent experiments
[13] = P. aeruginosa NCTC13437, 24 h incubation, aliquots plated on MHA, no viable colonies
[14] = E. coli O157:H7 EDL933, 24 h incubation, 5 × 10^6 CFU/mL, absorbance 600 nm, mean of three independent experiments
[15] = E. coli O157:H7 EDL933, 24 h incubation, aliquots plated on MHA, no viable colonies

| SMILES | MIC [1, 12] [µg/mL] | MBC [1, 13] [µg/mL] | Morphology of self-assembled nanostructure (cryo-TEM) [2] | Hemolysis of hRBCs [3] | MIC [4, 14] [µg/mL] | MBC [4, 15] [µg/mL] | MBC [5] [µg/mL] | MIC [5] [µg/mL] | Critical aggregation concentration (CAC) [6] [wt %] | MBC [7] [µg/mL] | MIC [7] [µg/mL] | Cell viability / cytotoxicity (MTT) [8] | MBC [9] [µg/mL] | MIC [9] [µg/mL] | Effect on integrity of the bacterial membrane (live/dead staining) [10] | also measured |
| --- | --- | --- | --- | --- | --- | --- | --- | --- | --- | --- | --- | --- | --- | --- | --- | --- |
| NCCCC[C@@H](N)C(=O)N[C@H](CCCCN)C(=O)N[C@@H](Cc1ccc(O)cc1)C(=O)NCCCC[C@H](NC(=O)[C@H](Cc1ccc(O)cc1)NC(=O)[C@@H](CCCCN)NC(=O)[C@H](N)CCCCN)C(=O)N[C@@H](Cc1ccc(O)cc1)C(=O)N[C@H](CCCCN)C(=O)N[C@H](CCCCN)C(N)=O [DTP, (kkY)3K] (H-[dK][dK]YK([Tyr-dK-dK])Y[dK][dK]-NH2) | > 1000 | > 1000 | irregular globular aggregates | did not lyse hRBCs | 500 (≈ 356 µM) | 1000 (≈ 712 µM) | > 1000 | > 1000 | 0.0069 ± 0.002 | > 1000 | > 1000 | nor do they or reduce the viability of fibroblasts |  |  |  |  |
| NCCCC[C@@H](NC(=O)[C@@H](CCCCN)NC(=O)[C@H](Cc1ccc(O)cc1)NC(=O)[C@H](CCCCNC(=O)[C@H](Cc1ccc(O)cc1)NC(=O)[C@@H](CCCCN)NC(=O)[C@H](N)CCCCNC(=O)OCC1c2ccccc2-c2ccccc21)NC(=O)[C@H](Cc1ccc(O)cc1)NC(=O)[C@@H](CCCCN)NC(=O)[C@H](N)CCCCNC(=O)OCC1c2ccccc2-c2ccccc21)C(N)=O [FDTP, Fmoc-(kkY)3K] (H-[dK](Fmoc)[dK]YK([Tyr-dK-d(εLys)-Fmoc])Y[dK][dK]-NH2) | 125 (≈ 67.6 µM) | 250 (≈ 135 µM) | irregular globular aggregates | greater leakage of hRBCs | 15.62 (≈ 8.45 µM) | 31.25 (≈ 16.9 µM) | 62.5 (≈ 33.8 µM) | 31.2 (≈ 16.9 µM) | 0.0123 ± 0.003 | 500 (≈ 271 µM) | 250 (≈ 135 µM) | death of fibroblasts; also recorded: cytotoxicity at the two highest concentrations studied | 62.5 (≈ 33.8 µM) | 62.5 (≈ 33.8 µM) | rapid, membrane-targeting effects | Bacterial surface morphology by SEM [11]: Significant disruption of the surface of the bacteria; Bacterial surface morphology by SEM ([11]; listed as FTDP): collapsed shapes |
| NCCCC[C@H](NC(=O)[C@H](CCCCN)NC(=O)[C@H](Cc1ccc(O)cc1)NC(=O)[C@H](CCCCNC(=O)[C@H](Cc1ccc(O)cc1)NC(=O)[C@H](CCCCN)NC(=O)[C@@H](N)CCCCNC(=O)OCC1c2ccccc2-c2ccccc21)NC(=O)[C@H](Cc1ccc(O)cc1)NC(=O)[C@H](CCCCN)NC(=O)[C@@H](N)CCCCNC(=O)OCC1c2ccccc2-c2ccccc21)C(N)=O [FTP, Fmoc-(KKY)3K] (H-K(Fmoc)KYK([Tyr-Lys-εLys-Fmoc])YKK-NH2) | 125 (≈ 67.6 µM) | 250 (≈ 135 µM) | sheet-like structures |  | 62.5 (≈ 33.8 µM) | 125 (≈ 67.6 µM) | 250 (≈ 135 µM) | 125 (≈ 67.6 µM) | 0.0113 ± 0.005 | 500 (≈ 271 µM) | 250 (≈ 135 µM) |  | 62.5 (≈ 33.8 µM) | 62.5 (≈ 33.8 µM) | rapid, membrane-targeting effects |  |
| NCCCC[C@H](NC(=O)[C@H](CCCCN)NC(=O)[C@H](Cc1ccc(O)cc1)NC(=O)[C@H](CCCCNC(=O)[C@H](Cc1ccc(O)cc1)NC(=O)[C@H](CCCCN)NC(=O)[C@@H](N)CCCCN)NC(=O)[C@H](Cc1ccc(O)cc1)NC(=O)[C@H](CCCCN)NC(=O)[C@@H](N)CCCCN)C(N)=O [TP, (KKY)3K] (H-KKYK([Tyr-Lys-Lys])YKK-NH2) |  |  | irregular globular aggregates | did not lyse hRBCs | > 1000 | > 1000 |  |  | 0.0065 ± 0.004 |  |  | nor do they or reduce the viability of fibroblasts |  |  |  |  |
| CC[C@H](C)CCCCC(=O)N[C@@H](CCN)C(=O)N[C@H](C(=O)N[C@@H](CCN)C(=O)N[C@H]1CCNC(=O)[C@H]([C@@H](C)O)NC(=O)[C@H](CCN)NC(=O)[C@H](CCN)NC(=O)[C@H](CC(C)C)NC(=O)[C@@H](Cc2ccccc2)NC(=O)[C@H](CCN)NC1=O)[C@@H](C)O [polymyxin B, reference compound] (X1-[Dab]T[Dab][Dab][Dab][dF]L[Dab][Dab]T; lactam 4-C (inferred); N-terminus assumed) |  |  |  |  |  |  | > 100 | > 100 |  | 12.5 (≈ 10.4 µM) | 6.25 (≈ 5.19 µM) |  | 6.25 (≈ 5.19 µM) | 3.12 (≈ 2.59 µM) |  | MBC ([1]; NCTC 13437, 24 h): 25 µg/mL (≈ 20.8 µM); MIC ([1]; NCTC 13437, 24 h): 6.25 µg/mL (≈ 5.19 µM); MBC ([4]; O157:H7, 24 h): 6.25 µg/mL (≈ 5.19 µM); MIC ([4]; O157:H7, 24 h): 3.12 µg/mL (≈ 2.59 µM) |
